Data reported in patent US20230255988A1 (CORNELL UNIVERSITY, priority 2020, published 2023).

Legend:
Type in all cases: in vivo, human
[1] = system: amyloid positive patients with amnestic mild cognitive impairment (aMCI) or mild dementia due to AD; experiment: AD Assessment Scale-Cognitive Subscale (ADAS-Cog), 12-month randomized placebo-controlled trial
Excerpt: ADAS-cog served as the primary endpoint. […] Assignment of patients. […] Using blocked, stratified randomization design, patients were assigned to the treatment or control group. […] Within this group, a separate randomization schedule was generated using the proc plan function in SAS statistics program for those with an MMSE greater than or less than or equal to 26 to balance their allocation patients to placebo or treatment groups. Using a block size of four for a total of seventy-six patients, 19 blocks were created to help ensure balanced recruitment into treatment and control groups within strata. The schedule was generated in advance by the statistician and provided to the blinded pharmacist in charge of executing the randomization. Two randomization worksheets stratified by MMSE were provided to the pharmacist, who randomized the patients. […] The patients were enrolled by the clinical study team and randomized by the pharmacist. The assignment to the treatment or placebo group was known only to the pharmacist and kept behind a triple lock. The patients received numbered bottles. The trial duration per participant was twelve months. […] AD Assessment Scale-Cognitive Subscale (ADAS-Cog) was the primary outcome measure. It indicates the severity of the most important symptoms of Alzheimer's disease. It consists of 11 tasks measuring the disturbances of memory, language, praxis, attention and other cognitive abilities (S. Balsis et al., Alzheimer's & Dementia, 8, 288-294, 2012; […] al., International Psychogeriatrics, 9, 123-138, 1997). The primary clinical outcome was ADAS-Cog, and secondary outcomes included the CDR score and fluorodeoxyglucose ([…]) imaging of the brain. AGE levels were an exploratory outcome. The primary analysis followed Intention-to-Treat (ITT) and the secondary analysis was per-protocol. The per-protocol analysis omitted one placebo participant who took benfotiamine from a commercial vendor. The ITT and per-protocol analysis are presented for the primary outcome ADAS-cog and the secondary measure CDR. For the other measures, only per-protocol analysis are presented. The primary analysis was done on the ITT data. The Last-Observation-Carry-Forward (LOCF) method was used to impute the missing values of ADAS total score and the secondary endpoints such as CDR as well for each time point. The primary analysis was done on ITT data which were imputed with LOCF method. Per-protocol analysis was done as a sensitivity analysis and as observational comparisons (F. J. Molnar et al., Canadian Medical Association Journal, 179, 751, 2008).

[2] = system: amyloid positive patients with amnestic mild cognitive impairment (aMCI) or mild dementia due to AD; experiment: Buschke Selective Reminding Test (SRT), 12-month trial; settings: 12 months
Excerpt: The trial duration per participant was twelve months. […] The Buschke Selective Reminding Test (SRT) is a standard diagnostic tool in the assessment of verbal memory. Several studies attest to its predictive value for dementia.

[3] = system: amyloid positive patients with amnestic mild cognitive impairment (aMCI) or mild dementia due to AD; experiment: Alzheimer's Disease Cooperative Study-Activities of Daily Living (ADCS-ADL), 12-month trial; settings: 12 months
Excerpt: The trial duration per participant was twelve months.
Alzheimer's Disease Cooperative Study-Activities of Daily Living (ADCS-ADL). The ADCS-ADLSIV is a caregiver-based ADL scale composed of 19 items developed for use in dementia clinical studies (D. Galasko et al., Alzheimer Disease and Associated Disorders, 11, S33-S39, 1997). It assesses the patient's performance of both basic and instrumental activities of daily living, such as those necessary for personal care, communicating and interacting with other people, maintaining a household, conducting hobbies and interests, as well as making judgments and decisions. Higher numbered scores and answers of “yes” reflect a more self-sufficient individual. Therefore, the higher total score correlates with higher cognitive function. The total score is the sum of all items and sub-questions.

[4] = system: brain glucose utilization; experiment: FDG PET imaging of glucose metabolism, regions of interest
Excerpt: Image acquisition, processing, and measurement. FDG PET imaging of glucose metabolism was acquired at baseline and after 12 months of treatment. All scans were acquired on a Siemens MCT 64 PET/CT PET-CT scanner at CUIMC. Study participants were maintained in an awake, at rest state with eyes and ears open in dim lighting during tracer uptake. Forty minutes after injection of the tracer, the emission image was acquired in four contiguous 5-minute frames. Frames were aligned with SPM 12, averaged, and then spatially normalized to the MNI template using SPM12 (https://www.fil.ion.ucl.ac.uk/spm/software/spm12/), resulting in one image per participant for each time point. Average voxel values within 90 regions of interest (ROIs) in the Automated Anatomic Labeling (AAL) Atlas were computed. […] The paracentral lobule and cerebellum were included as reference regions given their relative preservation during AD progression.

`C/C(=C(\CCOP(=O)(O)O)SC(=O)c1ccccc1)N(C=O)Cc1cnc(C)nc1N` [benfotiamine] was tested, and the “ADAS-cog change from baseline at 12 months” value ([1]; ITT analysis, 2×300 mg per day, 12 months, placebo 3.26) was 1.39, the “ADAS-cog unadjusted change baseline to 12 months, difference versus placebo” value ([1]; ITT, mixed effect model p=0.071, GEE p=0.137, Wilcoxon p=0.098) was “favoring benfotiamine” and the “ADAS score change Mean (SD), baseline to month 12” value ([1]; Per-protocol, unadjusted, 2×300 mg per day, placebo 3.2 (5.66)) was 0.96 (5.41). For the same compound, the “ADAS-cog effect modification by APOE ε4 allele carrier status” value ([1]; exploratory) was “no effect modification”, the “ADAS-cog effect modification by sex” value ([1]; exploratory, not statistically significant) was “males might have been more responsive” and the “ADAS-cog response by baseline MMSE” value ([1]; post-hoc, MMSE>=26 p=0.027, MMSE<26 p=0.99) was “stronger response among those with a higher MMSE at baseline”. The “Buschke SRT score and change in score versus placebo” value ([2]; p=0.177, change 0.315) was “no significant change”, the “Buschke SRT score course over time” value ([2]; placebo showed a downward trend) was “stable scores” and the “ADCS-ADL score versus placebo” value [3] was “no significant differences”. For the same compound, the “FDGPET Month_12 - Baseline change, Entorhinal_cortex Left” value ([4]; n = 34, 2×300 mg per day) was −0.02 (0.11), the “FDGPET Month_12 - Baseline change, Entorhinal_cortex Right” value ([4]; n = 34, 2×300 mg per day) was −0.02 (0.10) and the “FDGPET Month_12 - Baseline change, Frontal cortex Left” value ([4]; n = 34, 2×300 mg per day) was −0.03 (0.04). The “FDGPET Month_12 - Baseline change, Frontal cortex Right” value ([4]; n = 34, 2×300 mg per day) was −0.03 (0.04), the “FDGPET Month_12 - Baseline change, Hippocampus Left” value ([4]; n = 34, 2×300 mg per day) was −0.01 (0.04) and the “FDGPET Month_12 - Baseline change, Hippocampus Right” value ([4]; n = 34, 2×300 mg per day) was −0.02 (0.04). The “FDGPET Month_12 - Baseline change, Medial temporal Left” value ([4]; n = 34, 2×300 mg per day) was −0.03 (0.04), the “FDGPET Month_12 - Baseline change, Medial temporal Right” value ([4]; n = 34, 2×300 mg per day) was −0.03 (0.05) and the “FDGPET Month_12 - Baseline change, Parietal Left” value ([4]; n = 34, 2×300 mg per day) was −0.02 (0.05). For the same compound, the “FDGPET Month_12 - Baseline change, Parietal Right” value ([4]; n = 34, 2×300 mg per day) was −0.02 (0.04), the “FDGPET Month_12 - Baseline change, Percuneus Left” value ([4]; n = 34, 2×300 mg per day) was −0.03 (0.04) and the “FDGPET Month_12 - Baseline change, Percuneus Right” value ([4]; n = 34, 2×300 mg per day) was −0.03 (0.04). For the same compound, the “FDGPET Month_12 - Baseline change, Posterior cingulate Left” value ([4]; n = 34, 2×300 mg per day) was −0.02 (0.03), the “FDGPET Month_12 - Baseline change, Posterior cingulate Right” value ([4]; n = 34, 2×300 mg per day) was −0.02 (0.03) and the “FDGPET Month_12 - Baseline change, Prefrontal_cortex Left” value ([4]; n = 34, 2×300 mg per day) was −0.02 (0.04). The “FDGPET Month_12 - Baseline change, Prefrontal_cortex Right” value ([4]; n = 34, 2×300 mg per day) was −0.03 (0.04), the “FDGPET Month_12 - Baseline change, Whole_brain” value ([4]; n = 34, 2×300 mg per day) was −0.01 (0.02) and the “FDGPET in pre-specified regions of interest, benfotiamine versus placebo” value ([4]; paracentral lobule and cerebellum as reference region) was “No significant differences”.
